Data taken from patent US20220389008A1, “4-QUINOLINONE ANTIBACTERIAL COMPOUNDS” (Janssen Sciences Ireland Unlimited Company, priority 2019, published 2022).
Like-named read-outs stand apart in the source and are kept apart here.

How the values were obtained:
[1] = tested on: Mycobacterium tuberculosis (strain H37Ra), cyt bd; conditions: Mtb H37Ra; for (i) % OCR after cyt bd inhibitor: test compound 10 μM added after Compound X 0.9 μM; for (ii) % OCR after cccp: test compound 10 μM after Compound X 0.9 μM, then CCCP 1 μM
[2] = tested on: Mitochondrial toxicity (Glu/Gal); assay: Mitochondrial toxicity (Glu/Gal) assay; assay type: cell-based; design: key to Score: “negative” means that in the test, it was found to have low mitotoxicity (and hence no mitotoxicity alerts); “positive” means that there were some mitotoxicity alerts; “inconclusive” means that no accurate conclusion could be drawn; conditions: for Score: mitotoxicity score; for Δ IC50,glu/IC50,gal: ratio glu/gal
Source text: The compounds of the invention/examples may have advantages associated with in vitro potency, kill kinetics (i.e. bactericidal effect) in vitro, PK properties, food effect, safety/toxicity (including liver toxicity, coagulation, 5-LO oxygenase), metabolic stability, Ames II negativity, MNT negativity, aqueous based solubility (and ability to formulate) and/or cardiovascular effect e.g. on animals (e.g. anesthetized guinea pig). The data below that was generated/calculated may be obtained using standard methods/assays, for instance that are available in the literature or which may be performed by a supplier (e.g. Microsomal Stability Assay—Cyprotex, Mitochondrial toxicity (Glu/Gal) assay—Cyprotex, as well as literature CYP cocktail inhibition assays).

[3] = tested on: Mycobacterium tuberculosis strain H37Rv ΔctaE-ΔqcrCAB; assay: microbe, parasite or virus in culture; assay type: cell-based; conditions: 240 h
[4] = galactose medium, read-out: IC50, gal
[5] = glucose medium, read-out: IC50, glu

SMILES	(i) % OCR after cyt bd inhibitor [1]	(ii) % OCR after cccp [1]	IC50 [2, 4] [µM]	IC50 [2, 5] [µM]	Score [2]	Δ IC50,glu/IC50,gal [2]	IC50 [3] [µM]
Cc1c(-c2nc3ccc(OC(F)(F)F)cn3n2)[nH]c2ccccc2c1=O [Compound 30]	93.8%	120.2%	100	100	negative	[x]0	2.92
Cc1c(-c2nc3ccc(-c4cc(F)cc(C(F)(F)F)c4)cn3n2)[nH]c2ccccc2c1=O [Compound 126]	43,71%	51,74%	15.5	25	inconclusive	[x]1.61	10.8
COc1ccc2[nH]c(-c3nc4ccc(-c5ccc(OC(F)(F)F)cc5)cn4n3)c(C)c(=O)c2c1 [Compound 43]	109.2%	138%	10.6	26.3	inconclusive	[x]2.48	> 100
Cc1c(-c2nc3ccc(Br)cn3n2)[nH]c2c(F)cc(F)cc2c1=O [Compound 57]	102%	149.2%	100	100	negative	[x]0	> 50
Cc1c(-c2nc3ccc(-c4cnn(CC(F)(F)F)c4)cn3n2)[nH]c2ccccc2c1=O [Compound 81]	98.58%	182.7%	200	200	negative	[x]0	16.7
Cc1c(-c2nc3ccc(-c4cc(C(F)(F)F)nn4C)cn3n2)[nH]c2ccccc2c1=O [Compound 15]	91.58%	94.75%	200	44.3	negative	[x]0.22	57
CNC(=O)c1c(-c2nc3ccc(-c4nc(C(F)(F)F)cs4)cn3n2)[nH]c2ccccc2c1=O [Compound 27]	111.36%	117.59%	100	100	negative	[x]0	> 50
COc1cc(OC)cc(-c2ccc3nc(-c4[nH]c5ccccc5c(=O)c4C)nn3c2)c1 [Compound 87]	33,23%	38,98%	5.16	6.2	inconclusive	[x]1.21	0.548
O=c1c(Br)c(-c2nc3ccc(-c4ccc(OC(F)(F)F)cc4)cn3n2)[nH]c2ccccc12 [Compound 41]	84.09%	137.15%	54.7	53.9	negative	[x]0.99	33.9
Cc1c(-c2nc3cc(C(F)(F)F)c(Br)cn3n2)[nH]c2ccccc2c1=O [Compound 46]	91.4%	140.4%	100	100	negative	[x]0	> 50
Cc1c(-c2cn3ccc(-c4ccc(OC(F)(F)F)cc4)cc3n2)[nH]c2ccccc2c1=O [Compound 42]	80.1%	137.9%	200	200	negative		30.7
Cc1c(-c2nc3ccc(OCC(F)(F)F)cn3n2)[nH]c2ccccc2c1=O [Compound 77]	110.77%	175.26%	200	200	negative	[x]0	1.85
Cc1c(-c2nc3ccc(-c4ccc(OC(F)(F)F)c(F)c4)cn3n2)[nH]c2ccccc2c1=O [Compound 1]	26.9%	35.1%	19.8	100	positive	[x]5.06	1.63
Cc1c(-c2nc3cc(C(F)(F)F)c(-c4ccccc4)cn3n2)[nH]c2ccccc2c1=O [Compound 21]	81.6%	103.4%	50	50	negative	[x]0	11.4
COc1ccc(-c2ccc3nc(-c4[nH]c5ccccc5c(=O)c4C)nn3c2)cc1 [Compound 90]	25,77%	30,69%	200	200	negative	[x]0	1.49
Cc1c(-c2cn3cc(-c4cccc(OC(F)(F)F)c4)ccc3n2)[nH]c2ccccc2c1=O [Compound 23]	97.51%	110.11%	200	200	negative		> 100
Cc1c(-c2nc3ccc(N4CCN(CC(F)(F)F)CC4)cn3n2)[nH]c2ccccc2c1=O [Compound 16]	80.34%	95.29%	200	200	negative	[x]0	1.17
COc1ccc2[nH]c(-c3nc4ccc(-c5ccc(OC(F)(F)F)cc5)cn4n3)c(C)c(=O)c2c1Cl [Compound 80]	122.15%	180.98%	50	50	negative	[x]0	> 25
Cc1c(-c2nc3ccc(N4CCC(OC(F)(F)F)CC4)cn3n2)[nH]c2ccccc2c1=O [Compound 13]	61.74%	83.9%	141	200	negative	[x]1.42	4.12
Cc1cc(-c2ccc3nc(-c4[nH]c5ccccc5c(=O)c4C)nn3c2)ccc1F [Compound 110]	40,37%	51,51%	200	200	negative	[x]0	3.78
CN(C)C(=O)c1c(-c2nc3ccc(-c4ccc(OC(F)(F)F)cc4)cn3n2)[nH]c2ccccc2c1=O [Compound 31]	68.97%	120.39%	76	200	inconclusive	[x]2.63	> 50
Cc1c(-c2nc3ccc(-c4nc(C(F)(F)F)no4)cn3n2)[nH]c2ccccc2c1=O [Compound 24]	99.13%	113.29%	20	20	negative	[x]0	2.95
